Here are results for 1 compound from publication PMC5589637, “New perspectives of cobalt tris(bipyridine) system: anti-cancer effect and its collateral sensitivity towards multidrug-resistant (MDR) cancers” (Oncotarget, 2017).

The test system of data set [1] is OV2008 (cisplatin-sensitive) cells. Put plainly: MTT cytotoxicity, OV2008 (cisplatin-sensitive). It counts as cell-based. Conditions: 72 h, read-out: IC50 value, cisplatin-sensitive cancer, OV2008. An excerpt:
(§1) All cells were obtained from the American Type Culture Collection (Rockville, MD, USA) unless otherwise specified. Immortalized wild-type and Atg7-deficient mouse embryonic fibroblasts (MEFs) were kindly provided by Professor Masaaki Komatsu (Juntendo University, School of Medicine, Japan). Taxol-resistant types of MCF-7, HCT-8, A549 cancers cells and cisplatin-resistant SGC7901 cancer cells were purchased from KeyGEN BioTECH, China. Cisplatin-sensitive or –resistant A2780, OV2008 and C13 cancer cells were kindly provided by Prof. Benjamin Tsang (Department of Obstetrics and Gynecology and Department of Cellular and Molecular Medicine, University of Ottawa, Canada). HCT116 p53^+/+ and p53^−/− isogenic human colon cancer cells were kindly provided by Professor Bert Vogelstein (Ludwig Center at Johns Hopkins, Howard Hughes Medical Institute, USA). All media were supplemented with 10% fetal bovine serum and antibiotics penicillin (50 U/ml) and streptomycin (50 μg/ml; Invitrogen, Paisley, Scotland, UK). All cell cultures were incubated at 37°C in a 5% humidified CO2 incubator.
(§2) All tested compounds were dissolved in DMSO at a final concentration of 50 mmol/L and stored at −20°C before use. Cytotoxicity was assessed by using the 3-(4,5-dimethylthiazol-2-yl)-2, 5-diphenyltetrazolium bromide (MTT) (5.0 mg/ml) assay as previously described. Briefly, 4×10^3 cells per well were seeded in 96-well plates before drug treatments. After overnight culture, the cells were then exposed to different concentrations of selected compounds ([…]) for 72 hours. Cells without drug treatment were used as control. Subsequently, MTT (10 μL) solution was added to each well and incubated at 37°C for 4 hours followed by the addition of 100 μL solubilization buffer (10%SDS in 0.01 mol/L HCl) and overnight incubation. A570 nm was then determined in each well on the next day. The percentage of cell viability was calculated using the following formula: Cell viability (%) = Atreated/Acontrol × 100. Data were obtained from three independent experiments.

Data set [2] relates to A2780 cisplatin-resistant cancer cells. Put plainly: MTT cytotoxicity, cisplatin-resistant A2780. It counts as cell-based.
Source text: as §1, §2

Data set [3] concerns LLC-1 Lewis lung cancer xenograft. The experiment in a line: LLC-1 xenograft tumor model. It counts as in vivo. The note with it: LLC-1 bearing C57BL/6 mice, 10 days. How it is done: The mice were maintained under specific pathogen-free condition in a 12-h light-dark cycle. 8-week-old C57BL/6 mice (female body weight: 22 ± 4 g and male body weight 25 ± 4g) were purchased from The Chinese University of Hong Kong. The animals were housed in a 12 hours light/dark cycles and temperature-controlled room and given ad libitum access to food and water. All of the experiments were carried out in accordance to the “Institutional Animal Care and User Committee guidelines” of the Macau University of Science and Technology. C57BL/6 were randomly grouped (10 mice per group) and intraperitoneal injected with 40 mg/kg or 80 mg/kg of cobalt complex 2 or 40 mg/kg or 80 mg/kg of water-soluble form of cobalt complex 2. Xenograft mouse model was constructed as previously described. LLC-1 Lewis lung cancer cells (1 × 10^6 cells) were subcutaneously injected in the right dorsal region of the mice. After tumors grew to about 100 mm^3, the mice were randomly divided into 3 groups: 1) the control group, 2) 40 or 80 mg/kg cobalt complex 2 group, and 3) 40 mg/kg cobalt complex 2W (water soluble form). […] The body weight of each mouse was recorded with the tumor volume determined by Vernier caliper using the formula of L × W^2 × 0.52, where Lis the longest diameter of tumor and W is the shortest diameter of tumor. […]

Data set [4] can be described thus: Pharmacokinetic study (HPLC-MS of blood samples). The note with it: male C57BL/6 mice. It counts as in vivo. As for the experimental part: Pharmacokinetic study of cobalt complex 2 was performed in male C57BL/6 mice by the dosage of 40 mg/kg. The source of mouse and practice of husbandry were the same as described in the methodology section of LLC-1 Xenograft Tumor experiment. Cobalt complex 2 was diluted in the formula (PEG400: H2O: Ethanol = 6:3:1) and administered by intraperitoneal in a volume of 0.005 mL/g bodyweight. After dosing, blood samples were collected to sodium heparin anticoagulant tube at different time points (5, 15, 30 min, and then 1, 2, 4, 8, 12 and 24 hours); 4 mice were used for each time point. Approximately 200 μL of blood was collected via orbital vein from each anesthetized mouse by isoflurane. Plasma was separated by centrifugation at 3000 g for 10 minutes at 4°C. The plasma was protected and stored at −80°C until analyzed by liquid chromatography-mass spectrometry/mass spectrometry (LC-MS/MS) for quantification.
Plasma samples were thawed at room temperature and then vortexed to ensure sample solution homogeneity. Firstly, a 20 μL aliquot of each plasma sample were loaded into 1.5 mL tube, 100 μL acetonitrile was added, vortexed then centrifuged at 13000 rpm for 10 min. the supernatant was collected. The plasma cobalt complex 2 concentrations were quantified using Thermo HPLC Ultimate 3000 system. The compound in plasma samples were analyzed by using the Agilent Zorbax Eclipse Plus C-18 column with a particle size of 1.8 μm. The parameters of the gradient elution program were applied as follows: mobile phase A (0.1% formic acid in water) and mobile phase B acetonitrile: 0–5.5 min, 20% B; 5.5–7 min, 90% B; 7–10 min, 20% B. The column and autosampler temperature were maintained at 40 and 4 °C, respectively. The gas temperature was set 320 °C with flow rate (0.8 mL/min), gases were set at 10 psi for the nebulizer, capillary, 3500 V.

For data set [5], the system named is Hep3B (liver cancer) cells. Put plainly: MTT cytotoxicity assay, Hep 3B. The data set is classed as cell-based. The note with it: 72 h. How it is done:
as §2

Data set [6] deals with SGC-7901 cisplatin-resistant cancer cells. The experiment in a line: MTT cytotoxicity, cisplatin-resistant SGC-7901. The data set is classed as cell-based.
Source text: as §1, §2

The test system of data set [7] is HCT-8 taxol-sensitive cancer cells. The experiment in a line: MTT cytotoxicity, taxol-sensitive HCT-8. It counts as cell-based. Conditions: 72 h.
Source text: as §1, §2

Another data set deals with Atg7^+/+ wild-type MEFs. The experiment in a line: MTT cytotoxicity, Atg7 wild-type MEFs. The data set is classed as cell-based, mouse. The note with it: 72 h.
Source text: as §1, with “All media were supplemented with 10% fetal bovine serum and antibiotics penicillin (50 U/ml) and streptomycin (50 μg/ml; Invitrogen, Paisley, Scotland, UK). All cell cultures were incubated at 37°C in a 5% humidified CO2 incubator.” left out
All tested compounds were dissolved in DMSO at a final concentration of 50 mmol/L and stored at −20°C before use. Cytotoxicity was assessed by using the 3-(4,5-dimethylthiazol-2-yl)-2, 5-diphenyltetrazolium bromide (MTT) (5.0 mg/ml) assay as previously described. […] A570 nm was then determined in each well on the next day. The percentage of cell viability was calculated using the following formula: Cell viability (%) = Atreated/Acontrol × 100. […]

The test system of data set [8] is HepG2 (liver cancer) cells. The experiment in a line: MTT cytotoxicity assay, HepG2. The data set is classed as cell-based. Conditions: 72 h. As for the experimental part:
as §2
For orientation: Formazan colour is commonly taken as a measure of viable cells.

In the case of `Cc1ccnc(-c2cc(C)ccn2)c1.Cc1ccnc(-c2cc(C)ccn2)c1.Cc1ccnc(-c2cc(C)ccn2)c1.F[P-](F)(F)(F)(F)F.F[P-](F)(F)(F)(F)F.F[P-](F)(F)(F)(F)F.[Co+3]` [complex 2, [Co^III(4,4’-Me2-bpy)3](PF6)3], the IC50 – broadly, the concentration at which inhibition is half-maximal – is 7.62 µM in data set [1]; 10.7 µM in data set [2] (A2780 cisplatin-resistant, MTT, 72 h); 3.7 µM in data set [5]; 12.6 µM in [6] (SGC-7901 cisplatin-resistant, MTT, 72 h); 3.39 µM in data set [7]; 4.84 µM in the data set on Atg7^+/+ wild-type MEFs. Also, the IC50 in data set [8] is 5.44 µM. The “Resistant Factor, A2780” value in [2] (cisplatin-resistant over cisplatin-sensitive IC50, A2780) was 0.87. Moreover, the “reduction in tumor volume” value in [3] (IP 40 mg/kg/day or 80 mg/kg/day, P < 0.05) is reported as “up to 50%”. The body weight result in data set [3] (IP daily) is given as “no significant reduction in body weight”. Moreover, in [4] (40 mg/kg intraperitoneal of complex 2, 5 min to 24 hours), the “species detected in blood samples by HPLC-MS” value was “neither cobalt complex 2 nor its decomposed species was observed”. Moreover, the metabolism after absorption result in data set [4] (40 mg/kg intraperitoneal, after 2-hour time interval) was “almost complete metabolism”. Moreover, in [6] (cisplatin-resistant over cisplatin-sensitive IC50, SGC-7901), the “Resistant Factor, SGC-7901” value was found to be 1.14.
